Here are results for one compound from ChEMBL document CHEMBL1201862, “PubChem BioAssay data set” (2004).

The structures appear in SMILES notation.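 How tested: cells in 96-well plates exposed to compound for 48 hours at five concentrations. Here, GI50 denotes the concentration required for 50% inhibition of growth.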 Activity calls are given as the source filed them. Rule as the data show it: active = GI50 up to about 1.1 µM and inactive = higher.

Test systems include EKVX; SF-295; OVCAR-8; NCI-H226; LOX IMVI; SK-MEL-2; NCI-H23; SF-268; OVCAR-4; OVCAR-3; HCT-116; HT-29; HCT-15; A498; SN12C; COLO 205; NCI-H522; RXF 393; SK-MEL-5; UACC-62.
What all share (assay): NCI-60 cell line screen, 48 h

For the compound `COc1cc2c(ccc3c4cc(OC)c(OC)cc4c[n+](C)c23)cc1O` [FAGARONINE], the GI50 in the assay on EKVX was 39.6 µM (inactive); in the assay with SF-295 it was 7.93 µM (inactive); with OVCAR-8, 1.69 µM (inactive); in the assay on NCI-H226 it was 1.47 µM (inactive); with LOX IMVI it was > 33 µM (inactive); in the assay on SK-MEL-2, 41.4 µM (inactive). The GI50 in the assay on NCI-H23 was 7.76 µM (inactive); with SF-268 it was 0.0588 µM (active); in the assay with OVCAR-4, 12.2 µM (inactive); with OVCAR-3, 4.72 µM (inactive); with HCT-116, 4.24 µM (inactive); with HT-29, > 73.3 µM (inactive). Moreover, the GI50 in the assay with HCT-15 was greater than 73.3 µM; with A498, 3.94 µM (inactive); with SN12C, 0.726 µM (active); with COLO 205, 15 µM (inactive); in the assay with NCI-H522, 0.131 µM (active); in the assay with RXF 393, 30 µM (inactive). For the same compound, the GI50 in the assay on SK-MEL-5 was 4.09 µM (inactive); in the assay with UACC-62, 1.23 µM (inactive).
